The CheMixHub viscosity set
Several values for one entry are separate records, joined by “and”; a condition that tells them apart may be missing. Equal entries are not always repeated.

Assay: xn = mol fraction of the nth substance listed

OC1CCCCCC1 + OCCO
viscosity [mPa·s], 100 kPa
Conditions | 293.15 K | 298.15 K | 303.15 K | 308.15 K | 313.15 K | 318.15 K
x1 = 0.0095 | 20.34 | 16.92 | 13.81 | 11.37 | 9.587 | 7.9
x1 = 0.0395 | 20.45 | 16.98 | 13.85 | 11.42 | 9.625 | 7.92
x1 = 0.0578 | 20.52 | 17.02 | 13.9 | 11.44 | 9.638 | 7.931
x1 = 0.0878 | 20.65 | 17.12 | 13.95 | 11.49 | 9.678 | 7.957
x1 = 0.1 | 20.71 | 17.16 | 13.98 | 11.51 | 9.694 | 7.972
x1 = 0.1961 | 21.18 | 17.53 | 14.22 | 11.7 | 9.819 | 8.064
x1 = 0.305 | 21.95 | 18.16 | 14.85 | 12.27 | 10.25 | 8.379
x1 = 0.3969 | 22.89 | 19.04 | 15.54 | 12.83 | 10.68 | 8.723
x1 = 0.4993 | 24.41 | 20.37 | 16.58 | 13.61 | 11.32 | 9.271
x1 = 0.5877 | 26.32 | 21.93 | 17.76 | 14.49 | 12.06 | 9.883
x1 = 0.6993 | 29.93 | 24.59 | 19.71 | 15.94 | 13.24 | 10.77
x1 = 0.7996 | 34.97 | 28.03 | 22.14 | 17.65 | 14.57 | 11.68
x1 = 0.8977 | 45.8 | 36.3 | 28.9 | 22.7 | 19 | 15.7

CCCCN + CCOCCO
308.15 K, 101 kPa
Conditions | viscosity [mPa·s]
x2 = 0.0802 | 0.5335
x2 = 0.2044 | 0.6473
x2 = 0.3059 | 0.7671
x2 = 0.4065 | 0.8896
x2 = 0.5068 | 1.007
x2 = 0.6065 | 1.115
x2 = 0.7058 | 1.209
x2 = 0.9024 | 1.376

CC[N+](CC)(CC)Cc1ccccc1.[Cl-] + O
viscosity [mPa·s], 100 kPa
Conditions | 298.15 K | 303.15 K | 308.15 K | 313.15 K | 318.15 K
x1 = 8e-05 | 0.8929 | 0.7989 | 0.7209 | 0.6322 | 0.5462
x1 = 0.0002 | 0.8948 | 0.8015 | 0.7259 | 0.6354 | 0.5509
x1 = 0.0004 | 0.8991 | 0.8041 | 0.7284 | 0.6358 | 0.552

O=C(O)C(Cl)(Cl)Cl + CC(=O)c1ccccc1
298.15 K, 101 kPa
Conditions | viscosity [mPa·s]
x1 = 0.0896 | 2.112
x1 = 0.14 | 2.402
x1 = 0.2121 | 2.931
x1 = 0.2939 | 3.735
x1 = 0.409 | 5.54
x1 = 0.4876 | 7.349
x1 = 0.5794 | 9.33
x1 = 0.6815 | 11.15

CCCCN + C1COCCO1
298.15 K, 101 kPa
Conditions | viscosity [mPa·s]
x1 = 0.05 | 1.094
x1 = 0.1 | 1.019
x1 = 0.1005 | 1.018
x1 = 0.15 | 0.953
x1 = 0.2 | 0.896
x1 = 0.2025 | 0.893
x1 = 0.25 | 0.846
x1 = 0.2973 | 0.806
x1 = 0.3 | 0.801
x1 = 0.35 | 0.761
x1 = 0.3935 | 0.726
x1 = 0.4 | 0.725
x1 = 0.45 | 0.692
x1 = 0.4987 | 0.665
x1 = 0.5 | 0.662
x1 = 0.55 | 0.634
x1 = 0.5971 | 0.609
x1 = 0.6 | 0.609
x1 = 0.65 | 0.585
x1 = 0.6965 | 0.566
x1 = 0.7 | 0.564
x1 = 0.75 | 0.545
x1 = 0.7959 | 0.529
x1 = 0.8 | 0.528
x1 = 0.85 | 0.512
x1 = 0.9 | 0.498
x1 = 0.9041 | 0.497
x1 = 0.95 | 0.486

CC[N+](=O)[O-] + Cc1cc(C)cc(C)c1
293.15 K, 101.33 kPa
Conditions | viscosity [mPa·s]
x1 = 0.0912 | 0.69
x1 = 0.1908 | 0.685
x1 = 0.2974 | 0.68
x1 = 0.3871 | 0.675
x1 = 0.5179 | 0.669
x1 = 0.6112 | 0.665
x1 = 0.6912 | 0.665
x1 = 0.7813 | 0.669
x1 = 0.8874 | 0.671

CCCCN + CCC(C)O
303.15 K, 101 kPa
Conditions | viscosity [mPa·s]
x1 = 0.01013 | 2.438
x1 = 0.02003 | 2.41
x1 = 0.03045 | 2.381
x1 = 0.03818 | 2.364
x1 = 0.05108 | 2.332
x1 = 0.05904 | 2.313
x1 = 0.07204 | 2.283
x1 = 0.08279 | 2.26
x1 = 0.09543 | 2.229

O=C([O-])CC(O)(CC(=O)[O-])C(=O)[O-].[K+].[K+].[K+] + O
viscosity [mPa·s], 101 kPa
Conditions | 293.15 K | 298.15 K | 303.15 K | 308.15 K
x1 = 0.0025 | 1.072 | 0.946 | 0.844 | 0.758
x1 = 0.0089 | 1.265 | 1.123 | 1.003 | 0.908
x1 = 0.0177 | 1.478 | 1.32 | 1.187 | 1.07

CCC(C)(C)C + CCCCCCCCCCCC
298 K, 101.33 kPa
Conditions | viscosity [mPa·s]
x1 = 0.0995 | 1.264
x1 = 0.2015 | 1.152
x1 = 0.2997 | 1.056
x1 = 0.3975 | 0.944
x1 = 0.5013 | 0.8256
x1 = 0.6011 | 0.7202
x1 = 0.7 | 0.6152
x1 = 0.7997 | 0.5206
x1 = 0.9002 | 0.4256

Cc1ccncc1 + CCO
298.15 K, 101.33 kPa
Conditions | viscosity [mPa·s]
x2 = 0.119 | 0.878
x2 = 0.2179 | 0.8832
x2 = 0.3335 | 0.8963
x2 = 0.426 | 0.9084
x2 = 0.5813 | 0.9345
x2 = 0.7893 | 0.9902
x2 = 0.8494 | 1.015
x2 = 0.9031 | 1.041

[I-].[K+] + [2H]O[2H]
viscosity [mPa·s], 101 kPa
Conditions | x1 = 0.011 | x1 = 0.021 | x1 = 0.036 | x1 = 0.053 | x1 = 0.076 | x1 = 0.121
298.15 K | 1.036 | 0.97 | 0.942 | 0.936 | 0.972 | 1.098
308.15 K | 0.829 | 0.794 | 0.776 | 0.783 | 0.823 | 0.942
318.15 K | 0.692 | 0.667 | 0.662 | 0.68 | 0.715 | 0.827

CCC(=O)OCCN1CCNCC1 + CCO
Conditions | viscosity [mPa·s]
293.15 K, 100 kPa, x1 = 0.1216 | 37.45

O=S(=O)([O-])[O-].[K+].[K+] + O
Conditions | viscosity
293.65 K, 100 kPa, x1 = 0.008033 | 1.089 mPa·s
294.15 K, 100 kPa, x1 = 0.005375 | 1.042 mPa·s
294.15 K, 100 kPa, x1 = 0.01069 | 1.109 mPa·s and 1.108 mPa·s
298.15 K, 100 kPa, x1 = 5e-05 | 0.8905 mPa·s
298.15 K, 100 kPa, x1 = 0.0001 | 0.891 mPa·s
298.15 K, 100 kPa, x1 = 0.00021 | 0.892 mPa·s
298.15 K, 100 kPa, x1 = 0.00031 | 0.893 mPa·s
298.15 K, 100 kPa, x1 = 0.00104 | 0.9247 mPa·s
298.15 K, 101 kPa, x1 = 0.00655 | 0.966 mPa·s
298.15 K, 101 kPa, x1 = 0.01242 | 1.039 mPa·s
303.15 K, 101 kPa, x1 = 0.01242 | 0.9548 mPa·s
308.15 K, 100 kPa, x1 = 5e-05 | 0.7195 mPa·s
308.15 K, 100 kPa, x1 = 0.0001 | 0.72 mPa·s
308.15 K, 100 kPa, x1 = 0.00021 | 0.721 mPa·s
308.15 K, 100 kPa, x1 = 0.00031 | 0.722 mPa·s
308.15 K, 100 kPa, x1 = 0.00104 | 0.7509 mPa·s
308.15 K, 101 kPa, x1 = 0.01242 | 0.8705 mPa·s
313.15 K, 101 kPa, x1 = 0.01242 | 0.7905 mPa·s
318.15 K, 101 kPa, x1 = 0.01242 | 0.7249 mPa·s
323.15 K, 101 kPa, x1 = 0.00318 | 0.576 mPa·s
323.15 K, 101 kPa, x1 = 0.00655 | 0.603 mPa·s
323.15 K, 101 kPa, x1 = 0.0113 | 0.645 mPa·s

c1cc2c3c(cccc3c1)CC2 + CO
viscosity [mPa·s], 101.33 kPa
Conditions | 298.15 K | 303.15 K | 308.15 K | 313.15 K | 318.15 K
x1 = 0.00465 | 0.5715 | 0.5301 | 0.494 | 0.4598 | 0.436
x1 = 0.0072 | – | 0.5362 | 0.5036 | 0.4714 | 0.4405

O=[N+]([O-])[O-].[Ag+] + Nc1cccc(Cl)c1
298.15 K, 101 kPa
Conditions | viscosity [mPa·s]
x1 = 0.00059 | 3.52
x1 = 0.0014 | 3.57
x1 = 0.00381 | 3.67
x1 = 0.008857 | 3.92
x1 = 0.02337 | 4.83
x1 = 0.06044 | 9.18
